Experimental data: patent US20090275503A1, “DIASTEREOMERIC PEPTIDES FOR MODULATING T CELL IMMUNITY” (Yeda Research and Developent Co., Ltd. at the Weizman …, priority 2005, published 2009)
Non-standard residues stand in square brackets, D forms with d. No end group written: not given here.

Legend:
[1] = tested on: Lewis rats; assay: Adjuvant arthritis (AA) in Lewis rats (Part A); assay type: in vivo, rat
Procedure: To test the effect of CP on T-cell activation in vivo, the experimental T-cell mediated autoimmune disease adjuvant arthritis (AA) was used. AA was induced by injecting 50 μl of Mt suspended in IFA (10 mg/ml) at the base of the tail. At the time of AA induction, each rat also received 100 μg of all-L CP, 2D-CP or 2G CP control peptide (or PBS) dissolved in 50 μl of IFA and mixed with Mt/IFA used to induce AA. The day of AA induction was designated as day 0. Disease severity was assessed by direct observation of all 4 limbs in each animal. A relative score between 0 and 4 was assigned to each limb, based on the degree of joint inflammation, redness and deformity; thus the maximum possible score for an individual animal was 16 (Quintana et al., 2002). The mean AA score (±SEM) is shown for each experimental group. Arthritis was also quantified by measuring hind limb diameter with a caliper. Measurements were taken on the day of the induction of AA and 26 days later (at the peak of AA); the results are presented as the mean±SEM of the difference between the two values for all the animals in each group. The person who scored the disease was blinded to the identity of the groups.
Next, the contribution of the secondary structure and the side-chains to the inhibitory effects of CP on T cell activation In vivo was analyzed, using the experimental autoimmune disease Adjuvant Arthritis (AA). Immunization of Lewis rats with Mt triggers AA, an autoimmune disease driven by Mt-specific T cells that cross-react with self-antigen (Holoshitz et al., 1984; Holoshitz et al., 1983). PPD and Mt176-90 are targeted by the arthritogenic T-cell response (Anderton et al., 1994); indeed immunomodulatory therapies that inhibit the progression of arthritis have been associated with a decreased T cell response to PPD and Mt176-90 and with a diminished delayed type hypersensitivity (DTH) response to PPD (van Eden et al., 1985).

[2] = tested on: LNC from Mt primed rats; assay: T-cell proliferation of LNC from Mt-immunized rats activated with PPD or Mt176-90 (Part A); assay type: cell-based, rat

## GLRILLLKV [2D-CP] (GL[dR]ILLL[dK]V-NH2; also: rhodamine label, position not given here) [CP diastereomer]
[1]; 100 μg peptide per rat at AA induction, maximum possible score 16
  Mean maximum AA score: 6.6±0.7
[1]; 100 μg peptide per rat with Mt at the time of AA induction
  Effect on adjuvant arthritis (clinical score and paw swelling): significantly milder arthritis
[1]; dose increased to 900 μg per rat
  Further decrease in the AA score: 25%
[1]; dose increased to 900 μg per rat, day 26
  Improvement in paw swelling: 50%
[2]; LNC, 72 hr, 3H-thymidine incorporation
  Inhibition of T-cell proliferation to PPD and to Mt176-90: inhibited T-cell proliferation to PPD and to Mt176-90 in a dose-dependent manner
[2]; at lower concentrations, p<0.02 (FIG. 3B)
  Inhibition of T-cell proliferation compared with all-L CP: somewhat greater
